Laboratory results: patent US7538241B2, “Hsp90 family protein inhibitors” (Kyowa Hakko Kogyo Co., Ltd., priority 2003, dated 2009)

Tested on: human mammary cancer-derived KPL-4 cells
Experiment: Cell growth inhibition test with KPL-4 cells (WST-1)
Assay type: cell-based
Details: KPL4, 72 hours, read-out: 50% growth inhibition concentration (GI50)
Description: In a 96-well plate (Nunc), human mammary cancer-derived KPL-4 cells were sown in an amount of 2000 cells/well, and pre-incubated in 10% fetal calf serum (FCS)-containing Dulbecco Modified Eagle Medium (DMEM) (incubation medium) in a 5% carbon dioxide incubator at 37° C. for 24 hours. A dimethylsulfoxide (DMSO) solution of a test compound controlled at 10 mmol/L was stepwise diluted with the incubation medium, and added to each well in a total amount of 100 μL/well, and incubated in the 5% carbon dioxide incubator at 37° C. for 72 hours. After the incubation, WST-1 {4-[3-(4-Iodophenyl)-2-(4-nitrophenyl)-2H-5-tetrazolio]-1,3-benzene disulfonate}-labeled mixture (Rosh Diagnostic) diluted 2-fold with the incubation medium was added thereto in an amount of 20 μL/well, and incubated in the 5% carbon dioxide incubator at 37° C. for 1 hour. Using a microplate spectrophotometer (Biorad's Model 550), the absorbance at 450 nm and 655 nm of each well was measured. The cell growth inhibition activity of the test compound was indicated by the 50% growth inhibition concentration (GI50) thereof. A method of calculating GI50 is described. The absorbance at 655 nm of each well was subtracted from the absorbance at 450 nm thereof to give a value (absorbance difference). The absorbance difference obtained with the cells without being treated with the test compound was taken as 100%, and this was compared with the absorbance difference obtained with the cells treated with the test compound to give the concentration of the compound for 50% cell growth inhibition, and this is referred to as GI50.

SMILES	GI50
CCCc1c(O)cc(O)c(-c2ccccc2)c1CCOC [Compound 95, 5-(2-Methoxyethyl)-4-phenyl-6-propylbenzene-1,3-diol]	≤ 50 µM
COCCc1c(CC(C)C)c(O)cc(O)c1-c1ccccc1 [Compound 96, 6-Isobutyl-5-(2-methoxyethyl)-4-phenylbenzene-1,3-diol]	≤ 50 µM
COCCCc1c(Br)c(O)cc(O)c1-c1ccccc1 [Compound 97, 6-Bromo-5-(3-methoxypropyl)-4-phenylbenzene-1,3-diol]	≤ 50 µM
CNCCc1c(Br)c(O)cc(O)c1-c1ccccc1 [Compound 98, 6-Bromo-5-[2-(N-methylamino)ethyl]-4-phenylbenzene-1,3-diol]	≤ 50 µM
CN(C)CCc1c(Br)c(O)cc(O)c1-c1ccccc1 [Compound 99, 6-Bromo-5-[2-(N,N-dimethylamino)ethyl]-4-phenylbenzene-1,3-diol]	≤ 50 µM
COCCNCCc1c(Br)c(O)cc(O)c1-c1ccccc1 [Compound 100, 6-Bromo-5-{2-[N-(2-methoxyethyl)amino]ethyl}-4-phenylbenzene-1,3-diol]	≤ 50 µM
COCCNCc1c(Br)c(O)cc(O)c1-c1ccccc1 [Compound 103, 6-Bromo-5-[N-(2-methoxyethyl)aminomethyl]-4-phenylbenzene-1,3-diol]	≤ 50 µM
COCCc1c(Br)c(O)cc(O)c1-c1cccc(OC)c1 [Compound 105, 6-Bromo-5-(2-methoxyethyl)-4-(3-methoxyphenyl)benzene-1,3-diol]	≤ 50 µM
COc1cccc(-c2c(O)cc(O)c(Br)c2CC(C)=NO)c1 [Compound 107, 6-Bromo-5-[2-(hydroxyimino)propyl]-4-(3-methoxyphenyl)benzene-1,3-diol]	≤ 50 µM
Oc1cc(O)c(-c2ccccc2)c(CCOCC2CCCO2)c1Br (stereo not drawn) [Compound 109, 6-Bromo-5-[2-(oxolan-2-ylmethoxy)ethyl]-4-phenylbenzene-1,3-diol]	≤ 50 µM
OCCOCCc1c(Br)c(O)cc(O)c1-c1ccccc1 [Compound 110, 6-Bromo-5-[2-(2-hydroxyethoxy)ethyl]-4-phenylbenzene-1,3-diol]	≤ 50 µM
COCOCCc1c(Br)c(O)cc(O)c1-c1ccccc1 [Compound 111, 6-Bromo-5-[2-(methoxymethoxy)ethyl]-4-phenylbenzene-1,3-diol]	≤ 50 µM
Oc1cc(O)c(-c2ccccc2)c(C2OCCO2)c1Br [Compound 112, 6-Bromo-5-(1,3-dioxolan-2-yl)-4-phenylbenzene-1,3-diol]	≤ 50 µM
CC(=O)CCc1c(Br)c(O)cc(O)c1-c1ccccc1 [Compound 114, 4-(2-Bromo-3,5-dihydroxy-6-phenylphenyl)butan-2-one]	≤ 50 µM
CC(O)CCc1c(Br)c(O)cc(O)c1-c1ccccc1 (stereo not drawn) [Compound 115, 5-(3-Hydroxybutyl)-6-bromo-4-phenylbenzene-1,3-diol]	≤ 50 µM
COCCc1c(Br)c(O)cc(O)c1-c1cccc(C(N)=O)c1 [Compound 117, 3-[5-Bromo-2,4-dihydroxy-6-(2-methoxyethyl)phenyl]benzamide]	≤ 50 µM
COCCc1c(C(C)=O)c(O)cc(O)c1-c1cccc(C(=O)OC)c1 [Compound 119, Methyl 3-[5-acetyl-2,4-dihydroxy-6-(2-methoxyethyl)phenyl]benzoate]	≤ 50 µM
COCCc1c(C(C)=O)c(O)cc(O)c1-c1cccc(-c2ccccc2)c1 [Compound 120, 1-[2,4-Dihydroxy-6-(2-methoxyethyl)-5-(3-phenylphenyl)phenyl]ethanone]	≤ 50 µM
CCOc1cccc(-c2c(O)cc(O)c(C(C)=O)c2CCOC)c1 [Compound 121, 1-[2,4-Dihydroxy-5-(3-ethoxyphenyl)-6-(2-methoxyethyl)phenyl]ethanone]	≤ 50 µM
CC(=O)c1c(O)cc(O)c(-c2ccccc2)c1CCCO [Compound 124, 1-[2,4-Dihydroxy-6-(3-hydroxypropyl)-5-phenylphenyl]ethanone]	≤ 50 µM
COCCc1c(C(=O)C(F)(F)F)c(O)cc(O)c1-c1ccccc1 [Compound 125, 1-[2,4-Dihydroxy-6-(2-methoxyethyl)-5-phenylphenyl]-2,2,2-trifluoroethanone]	≤ 50 µM
CCc1c(OC)cc(O)c(-c2ccccc2)c1CC(=O)OC [Compound 126, Methyl 6-ethyl-3-hydroxy-5-methoxy-2-phenylphenylacetate]	≤ 50 µM
COCCc1c(C(=O)OC)c(O)cc(O)c1-c1ccccc1 [Compound 128, Methyl 2,4-dihydroxy-6-(2-methoxyethyl)-5-phenylbenzoate]	≤ 50 µM

SMILES	GI50
COCCc1c(OC)c(O)cc(O)c1-c1ccccc1 [Compound 129, 6-Methoxy-5-(2-methoxyethyl)-4-phenylbenzene-1,3-diol]	≤ 50 µM
CCc1c(O)cc(O)c(-c2cccc(C(=O)OC)c2)c1CCOC [Compound 131, Methyl 3-[5-ethyl-2,4-dihydroxy-6-(2-methoxyethyl)phenyl]benzoate]	≤ 50 µM
CCc1c(O)cc(O)c(-c2cccc(-c3ccccc3)c2)c1CCOC [Compound 132, 6-Ethyl-5-(2-methoxyethyl)-4-(3-phenylphenyl)benzene-1,3-diol]	≤ 50 µM
CCOc1cccc(-c2c(O)cc(O)c(CC)c2CCOC)c1 [Compound 133, 4-(3-Ethoxyphenyl)-6-ethyl-5-(2-methoxyethyl)benzene-1,3-diol]	≤ 50 µM
COCCc1c(C(C)=O)c(O)cc(O)c1-c1cccc(OCc2ccccc2)c1 [Compound 135, 1-[2,4-Dihydroxy-5-(3-benzyloxyphenyl)-6-(2-methoxyethyl)phenyl]ethanone]	≤ 50 µM
COCCN(C)C(=O)Cc1c(C(C)=O)c(O)cc(O)c1-c1cccc(OC)c1 [Compound 141, 2-[2-Acetyl-3,5-dihydroxy-6-(3-methoxyphenyl)phenyl]-N-(2-methoxyethyl)-N-methylacetamide]	≤ 50 µM
CCc1c(O)cc(O)c(-c2cccc(OC)c2)c1CC(=O)OC [Compound 142, Methyl 2-ethyl-3,5-dihydroxy-6-(3-methoxyphenyl)phenylacetate]	≤ 50 µM
C=CCOCCc1c(CC)c(O)cc(O)c1-c1ccccc1 [Compound 144, 5-(2-Allyloxyethyl)-6-ethyl-4-phenylbenzene-1,3-diol]	≤ 50 µM
CCc1c(O)cc(O)c(-c2cccc(OC)c2)c1CC(=O)N(C)CCOC [Compound 150, 2-[2-Ethyl-3,5-dihydroxy-6-(3-methoxyphenyl)phenyl]-N-(2-methoxyethyl)-N-methylacetamide]	≤ 50 µM
COCCc1c(-c2ccccc2)c(O)cc(O)c1C(C)C [Compound 151, 6-Isopropyl-5-(2-methoxyethyl)-4-phenylbenzene-1,3-diol]	≤ 50 µM
COCCOCCc1cc(OS(N)(=O)=O)cc(O)c1-c1ccccc1 [Compound 152, 3-(2-Methoxyethoxy)ethyl-2-phenyl-5-(sulfamoyloxy)phenol]	≤ 50 µM
CCc1c(O)cc(O)c(-c2cccc(CCC(C)=O)c2)c1CCOCCOC [Compound 153, 4-(3-{5-Ethyl-2,4-dihydroxy-6-[2-(2-methoxyethoxy)ethyl]phenyl}phenyl)butan-2-one]	≤ 50 µM
CCc1c(O)cc(O)c(-c2cccc(CCC(C)O)c2)c1CCOCCOC (stereo not drawn) [Compound 154, 6-Ethyl-4-[3-(3-hydroxybutyl)phenyl]-5-[2-(2-methoxyethoxy)ethyl]benzene-1,3-diol]	≤ 50 µM
CCc1c(O)cc(O)c(-c2ccccc2)c1CCOCC(N)=O [Compound 155, 2-[2-(2-Ethyl-3,5-dihydroxy-6-phenylphenyl)ethoxy]acetamide]	≤ 50 µM
CCc1c(O)cc(O)c(-c2ccccc2)c1CCOCC(=O)N(C)C [Compound 157, 2-[2-(2-Ethyl-3,5-dihydroxy-6-phenylphenyl)ethoxy]-N,N-dimethylacetamide]	≤ 50 µM
CCc1c(O)cc(O)c(-c2ccccc2)c1CCCOCC(N)=O [Compound 158, 2-[3-(2-Ethyl-3,5-dihydroxy-6-phenylphenyl)propoxy]acetamide]	≤ 50 µM
CCc1c(O)cc(O)c(-c2ccccc2)c1CCCOCC(=O)N(C)C [Compound 160, 2-[3-(2-Ethyl-3,5-dihydroxy-6-phenylphenyl)propoxy]-N,N-dimethylacetamide]	≤ 50 µM
CCc1c(O)cc(O)c(-c2ccccc2)c1CCCOCC(=O)NCCOC [Compound 168, 2-[3-(2-Ethyl-3,5-dihydroxy-6-phenylphenyl)propoxy]-N-(2-methoxyethyl)acetamide]	≤ 50 µM
CCc1c(O)cc(O)c(-c2ccccc2)c1CCC(O)CC(O)CO (stereo not drawn) [Compound 169, 6-Ethyl-4-phenyl-5-(3,5,6-trihydroxyhexyl)benzene-1,3-diol]	≤ 50 µM
CCc1c(O)cc(O)c(-c2ccccc2)c1CCOCCCOC [Compound 176, 6-Ethyl-5-[2-(3-methoxypropoxy)ethyl]-4-phenylbenzene-1,3-diol]	≤ 50 µM
CCc1c(O)cc(O)c(-c2ccccc2)c1CC(O)CC(O)CO (stereo not drawn) [Compound 177, 6-Ethyl-4-phenyl-5-(2,4,5-trihydroxypentyl)benzene-1,3-diol]	≤ 50 µM
CCc1c(O)cc(O)c(-c2ccccc2)c1CCOCC(O)COCCO (stereo not drawn) [Compound 179, 6-Ethyl-5-{2-[2-hydroxy-3-(2-hydroxyethoxy)propoxy]ethyl}-4-phenylbenzene-1,3-diol]	≤ 50 µM
